Experimental data taken from patent US20040101477A1, “Individualization of therapy with anesthetics” (Xanthus Life Sciences, Inc., priority 2002, published 2004).
Like-named read-outs stand apart in the source and are kept apart here. Marks after values point to notes of the source that are not given here.

Columns and labels:
[1] = cited from earlier work; for metabolized fraction of the absorbed anesthetic: in vivo
[2] = 37° C.; cited from earlier work
[3] = tested on: Chinese hamster ovary cells; settings: cited from earlier work
[4] = rat, 10 ppm, with nitrous oxide; cited from earlier work
[5] = tested on: Chinese hamster lung fibroblast; settings: cited from earlier work
cytochrome P-450 = settings: microsomal preparations; cited from earlier work
human leukocyte culture = settings: cited from earlier work
[6] = mouse, inhalation, 0.05%, 18 months; cited from earlier work
[7] = tested on: spermatogonia cells and bone marrow cells; settings: rat, one-year exposure, 1 and 10 ppm, with nitrous oxide; cited from earlier work
[8] = subanesthetic and/or anesthetic concentrations; cited from earlier work
[9] = humans; cited from earlier work
AAMU-Ab = experiment: Competitive antigen ELISA, cross-reactivity of AAMU-Ab; assay type: binding, rabbit; settings: 0 = absence of inhibition or inhibition no higher than 40% at 5 × 10^−3 M
Procedure: (§1) Buffers and water without additives are filtered through millipore filters and kept for 1 week. BSA, antibodies, Tween™ 20 and horse radish peroxidase conjugates are added to these buffers and water just prior to use. Urine samples are usually collected 4 hours after drinking a cup of coffee (instant or brewed with approximately 100 mg of caffeine per cup) and stored at 80° C. The urine samples are diluted 10 times with sodium phosphate buffer (620 mosm, pH 7.50) and are subsequently diluted with water to give concentrations of AAMU and 1× no higher than 3×10^−6 M in the ELISA. All the pipettings are done with an eight-channel pipette, except those of the antibody and sample solutions. Starting with the last well, 100 μL of a carbonate buffer (100 mM, pH 9.6) containing 2.5 μg mL-^1 antibodies are added to each well. After 90 min. at room temperature, the wells are washed three times with […] of TPB: isotonic sodium phosphate buffer (310 mosm, pH 7.50) containing 0.05% Tween™ 20.
(§2) After the initial wash, unoccupied sites are blocked by incubation for 90 min. at room temperature with 100 μL TBP containing 3% BSA. The wells are washed four times with 100 μL TPB. […] The microplate is gently shaken with an orbital shaker at room temperature for 3-4 hours. The wells are washed three times with 100 μL TPB containing 1% BSA and three times with water containing 0.05% Tween™ 20. To the washed plate is added 150 μL of a substrate buffer composed of citric acid (25 mM) and sodium phosphate dibasic buffer (50 mM, pH 5.0) containing 0.06% hydrogen peroxide and 0.04% o-phenylenediamine hydrochloride.
(§3) Buffers and water without additives were filtered through millipore filters and kept for 1 week. BSA, antibodies, Tween™ 20 and horse radish peroxidase conjugates were added to these buffers and water just prior to use. Urine samples were usually collected 4 hours after drinking a cup of coffee (instant or brewed with approximately 100 mg of caffeine per cup) and stored at −80° C. They were diluted 10 times with sodium phosphate buffer (620 mosm, pH 7.50) and were subsequently diluted with water to give concentrations of AAMU and 1× no higher than 3×10^−6 M in the ELISA. All the pipettings were done with an eight-channel pipette, except those of the antibody and sample solutions. Starting with the last well, 100 μL of a carbonate buffer (100 mM, pH 9.6) containing 2.5 μg mL-^1 antibodies was pipetted. After 90 min. at room temperature, the wells were washed three times with 100 μL of TPB: isotonic sodium phosphate buffer (310 mosm, pH 7.50) containing 0.05% Tween™ 20.
(§4) After the initial wash, unoccupied sites were blocked by incubation for 90 min. at room temperature with 100 μL TBP containing 3% BSA. The wells were washed four times with 100 μL TPB. […] The microplate was gently shaken with an orbital shaker at room temperature for 3-4 hours. The wells were washed three times with 100 μL with TPB containing 1% BSA and three times with water containing 0.05% Tween™ 20. To the washed plate was added 150 μL of a substrate buffer composed of citric acid (25 mM) and sodium phosphate dibasic buffer (50 mM, pH 5.0) containing 0.06% hydrogen peroxide and 0.04% o-phenylenediamine hydrochloride. After 20 min. at room temperature with shaking, the reaction was stopped with 50 μL of 2.5 N HCl.
(§5) The cross reactivities of AAMU-Ab and 1×-Ab were tested using a wide variety of caffeine metabolites and structural analogs (Table 2 below). AAMU-Ab appeared highly specific for binding AAMU, while 1×-Ab appeared relatively specific for binding 1×.

1X-Ab = experiment: Competitive antigen ELISA, cross-reactivity of 1X-Ab; assay type: binding, rabbit; settings: 0 = absence of inhibition or inhibition no higher than 40% at 5 × 10^−3 M
Procedure: as §1, §2, §3, §4, §5

[10] = cited from earlier work

Row | Structure (SMILES) | % Cross-Reaction AAMU-Ab (AAMU-Ab) | % Cross-Reaction 1X-Ab (1X-Ab) | other results
1 | FC(F)OC(Cl)C(F)(F)F (stereo not drawn) [isoflurane] | – | – | metabolism, fraction of the absorbed anesthetic ([1]; estimated): approximately 0.2%
2 | FC(F)(F)C(Cl)Br (racemic) [Halothane, 2-bromo-2-chloro-1,1,1-trifluoro-ethane] | – | – | metabolized fraction of the absorbed anesthetic [1]: 25-45%; blood/gas coefficient [2]: 2.5; olive oil/water coefficient [2]: 220; mutagenesis, sister chromatid exchange [3]: Negative; fertility [4]: decreased fertility; mutagenesis, Chinese hamster lung fibroblast assay [5]: Negative; concentration that destroys cytochrome P-450 (cytochrome P-450): 18800 µM; mutagenesis, human leukocyte culture assay (human leukocyte culture): Negative; carcinogenicity [6]: no evidence of anesthetic-related carcinogenicity; mutagenesis, chromosomal damage [7]: chromosomal damage to spermatogonia cells and bone marrow cells; teratogenic effects [8]: teratogenic, embryotoxic, and fetotoxic; minimum alveolar concentration (MAC) [9]: 0.64%
3 | CC(=O)Nc1c(N)[nH]c(=O)[nH]c1=O [5-Acetamino-6-amino-uracil] | 0.6% | 0% | –
4 | CC(=O)Nc1c(N)n(C)c(=O)[nH]c1=O [5-Acetamino-6-amino-1-methyluracil] | 100% | 0% | –
5 | COC(F)(F)C(Cl)Cl [methoxyflurane] | – | – | concentration that destroys cytochrome P-450 (cytochrome P-450): 5800 µM
6 | Nc1ccc(S(=O)(=O)c2ccc(N)cc2)cc1 [dapsone] | – | – | adverse reactions ([10]; fast acetylators): 17%; adverse reactions ([10]; slow acetylators): 46%
7 | O=c1[nH]c(=O)c2[nH]cnc2[nH]1 [Xanthine] | 0^a % | 0% | –
8 | Cn1c(=O)c2c(ncn2C)n(C)c1=O [1,3,7-Trimethyl Xanthine (Caffeine), 1,3,7-Trimethyl Xanthine] | 0% | 0% | –
9 | Nc1nc2nc[nH]c2c(=O)[nH]1 [Guanine] | 0% | 0% | –
10 | O=c1[nH]cnc2nc[nH]c12 [Hypoxanthine] | 0% | 0% | –
11 | Cc1nc2[nH]c(=O)[nH]c(=O)c2[nH]1 [8-Methyl Xanthine] | 0% | 0% | –
12 | Cn1c(=O)[nH]c2ncn(C)c2c1=O [1,7-Dimethyl Xanthine (Paraxanthine), 1,7-Dimethyl Xanthine] | 0% | 0.5% | –
13 | Cn1c(=O)[nH]c(=O)c2[nH]cnc21 [3-Methyl Xanthine] | 0% | 0% | –
14 | Cn1c(=O)c2[nH]cnc2n(C)c1=O [1,3-Dimethyl Xanthine (Theophylline), 1,3-Dimethyl Xanthine] | 0% | 0.2% | –
15 | O=c1cc[nH]c(=O)[nH]1 [Uracil] | 0% | 0% | –
16 | Cn1c(=O)[nH]c2[nH]c(=O)[nH]c2c1=O [1-Methyluric acid] | 0% | 11% | –
17 | Cn1cnc2c1c(=O)[nH]c(=O)n2C [3,7-Dimethyl Xanthine (Theobromine), 3,7-Dimethyl Xanthine] | 0% | 0% | –
18 | FC(F)OC(F)(F)C(F)Cl (stereo not drawn) [Enflurane] | – | – | metabolized fraction of the absorbed anesthetic [1]: 2-8%; concentration that destroys cytochrome P-450 (cytochrome P-450): 13300 µM
19 | Cn1c(=O)[nH]c2nc[nH]c2c1=O [1-Methyl Xanthine (1X), 1-Methyl Xanthine] | 0% | 100% | –
20 | Cn1cnc2[nH]c(=O)[nH]c(=O)c21 [7-Methyl Xanthine] | 0% | 0% | –
21 | O=c1[nH]c(=O)c2[nH]c(=O)[nH]c2[nH]1 [Uric acid] | 0% | 0% | –
22 | CC(=O)Nc1c(N)n(C)c(=O)n(C)c1=O [5-Acetamino-6-amino-1,3-dimethyluracil] | 0% | 0% | –
23 | Cn1c(=O)[nH]c2[nH]c(=O)n(C)c2c1=O [1,7-Dimethyluric acid] | 0% | 0% | –
